Data from the OPERA property sets (Mansouri et al. 2018).

| logP | Compound |
| --- | --- |
| 3.26 | COc1c(OC)c(OC(C)=O)c2cc(Cl)ccc2c1OC(C)=O |
| 2.28 | COc1c(OC)c(OC(C)=O)c2cc(C#N)ccc2c1OC(C)=O |
| 2.75 | COc1c(OC)c(OC(C)=O)c2cc(F)ccc2c1OC(C)=O |
| 5.69 | COc1c(OC)c(OC(=O)C(C)(C)C)c2ccccc2c1OC(=O)C(C)(C)C |
| 2.39 | COc1ccc2c(OC(C)=O)c(OC)c(OC)c(OC(C)=O)c2c1 |
| 3.16 | COc1c(OC)c(OC(C)=O)c2c(Cl)cccc2c1OC(C)=O |
| 3.39 | COc1c(OC)c(OC(C)=O)c2cc(Br)ccc2c1OC(C)=O |
| 2.86 | COc1c(OC)c(OC(C)=O)c2cc(C)ccc2c1OC(C)=O |
| 2.43 | COc1c(OC)c(OC(C)=O)c2c(OC)cccc2c1OC(C)=O |
| 2.51 | COc1c(OC)c(OC(C)=O)c2c(C#N)cccc2c1OC(C)=O |
| 4.61 | COc1c(OC)c(OC(=O)C(C)C)c2ccccc2c1OC(=O)C(C)C |
| 2.39 | COc1c(OC)c(OC(C)=O)c2ccccc2c1OC(C)=O |
